Read-outs that look alike come from different tables or passages of the source.
Experiments:
Experiment in all cases: Solid tumour and haematological malignancy assay (CellTiterGlo)
Assay type in all cases: cell-based
[1] = test system: RL; details: Homo sapiens; for EC50: read-out: EC50 (absolute EC50); for Emax: read-out: MI %
Method: (§1) In vitro viability assay were performed to assess the effects of compounds on cell viability in selected cell lines over 72 hr using the CellTiterGlo (CTG, Promega-G7573) assay. The tests were performed in duplicates with treatment of compounds at 9 points, 3.16 folds titration in 96 well plates over ˜72 hr. The compound starting concentrations were […]. Cell viability assay using CellTiterGlo in 96-well plate were performed. Compound treatment 72 hrs, standard growth conditions, duplicates. Compounds were dissolved to 40 mM with thawed […]. Compounds were serially diluted at 3.16 fold in thawed DMSO, and warmed to 37° C. before being dissolved in media ([…]). After compounds were dissolved in media, media containing compounds were warmed to 37° C. in incubator and then compounds in media were added to cell plates ([…]) in duplicates. The compounds' final concentrations were from […] to 19.9 nM. All compound solubilities were checked and recorded again, then the plates were transferred to CO2 tissue culture incubator immediately and incubated for 3 days. DMSO final concentration is 0.5%.

[2] = test system: MV4-11; details: Homo sapiens; for EC50: read-out: EC50 (absolute EC50); for Emax: read-out: MI %
Method: as §1

[3] = test system: NCI-H929; details: Homo sapiens; for EC50: read-out: EC50 (absolute EC50); for Emax: read-out: MI %
Method: as §1

[4] = test system: SW620; details: Homo sapiens; for EC50: read-out: EC50 (absolute EC50); for Emax: read-out: MI %
Method: as §1

[5] = test system: BxPC-3-Luc; details: read-out: EC50 (absolute EC50)
Method: as §1

[6] = test system: THP-1; details: Homo sapiens; for EC50: read-out: EC50 (absolute EC50); for Emax: read-out: MI %
Method: as §1

[7] = test system: MOLT-4; details: Homo sapiens; for EC50: read-out: EC50 (absolute EC50); for Emax: read-out: MI %
Method: as §1

[8] = test system: RPMI-8226; details: Homo sapiens; for EC50: read-out: EC50 (absolute EC50); for Emax: read-out: MI %
Method: as §1

[9] = test system: Z138; details: Homo sapiens; for EC50: read-out: EC50 (absolute EC50); for Emax: read-out: MI %
Method: as §1

[10] = test system: HS445; details: for EC50: read-out: EC50 (absolute EC50); for Emax: read-out: MI %
Method: as §1

[11] = test system: HepG2; details: Homo sapiens; for EC50: read-out: EC50 (absolute EC50); for Emax: read-out: MI %
Procedure, shortened: (§2)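 Compound pre-warmed to 37° C in medium, added to cells in duplicate; incubated 3 days in CO2 incubator; viability measured with CellTiterGlo. DMSO final 0.5%.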

[12] = test system: MiaPaCa-2; details: Homo sapiens; for EC50: read-out: EC50 (absolute EC50); for Emax: read-out: MI %
Procedure, shortened: as §2

[13] = test system: K562; details: Homo sapiens; for EC50: read-out: EC50 (absolute EC50); for Emax: read-out: MI %
Procedure, shortened: as §2

[14] = test system: HEL92.1.7; details: Homo sapiens; for EC50: read-out: EC50 (absolute EC50); for Emax: read-out: MI %
Procedure, shortened: as §2

[15] = test system: MCF7; details: Homo sapiens; for EC50: read-out: EC50 (absolute EC50); for Emax: read-out: MI %
Procedure, shortened: as §2

[16] = test system: HL-60; details: Homo sapiens; for EC50: read-out: EC50 (absolute EC50); for Emax: read-out: MI %
Procedure, shortened: as §2

[17] = test system: KG-1; details: Homo sapiens; for EC50: read-out: EC50 (absolute EC50); for Emax: read-out: MI %
Procedure, shortened: as §2

[18] = test system: HT29; details: Homo sapiens; for EC50: read-out: EC50 (absolute EC50); for Emax: read-out: MI %
Procedure, shortened: as §2

[19] = test system: CCRFCEM; details: Homo sapiens, CCRF-CEM; for EC50: read-out: EC50 (absolute EC50); for Emax: read-out: MI %
Procedure, shortened: as §2

CC(NP(=O)(OC[C@@H]1C[C@@H](O)[C@H](n2cnc3c(N)nc(Cl)nc32)O1)Oc1cccc2ccccc12)C(=O)OCc1ccccc1 (stereo in doubt) [S, (2R)-benzyl 2-((((2S,4R,5R)-5-(6-amino-2-chloro-9H-purin-9-yl)-4-hydroxytetrahydrofuran-2-yl)methoxy)(naphthalen-1-yloxy)phosphorylamino)propanoate]
EC50 ([1]; 72 h): 5 to 15 µM
Emax ([1]; 72 h): 100%
EC50 ([2]; MV4-11, 72 h): 5 to 15 µM
Emax ([2]; MV4-11, 72 h): 101%
EC50 ([3]; NCI-H929, 72 h): 5 to 15 µM
Emax ([3]; NCI-H929, 72 h): 102%
EC50 ([4]; SW-620, 72 h): 15 to 100 µM
Emax ([4]; SW-620, 72 h): 92.1%
EC50 ([5]; 72 h): 15 to 100 µM
EC50 ([6]; THP-1, 72 h): 15 to 100 µM
Emax ([6]; THP-1, 72 h): 97%
EC50 ([7]; MOLT-4, 72 h): 5 to 15 µM
Emax ([7]; MOLT-4, 72 h): 100%
EC50 ([8]; RPMI-8226, 72 h): 15 to 100 µM
Emax ([8]; RPMI-8226, 72 h): 99.6%
EC50 ([9]; Z-138, 72 h): 15 to 100 µM
Emax ([9]; Z-138, 72 h): 90.2%
EC50 ([10]; Hs 445, 72 h): 15 to 100 µM
Emax ([10]; Hs 445, 72 h): 106%
EC50 ([11]; HepG2, 72 h): 15 to 100 µM
Emax ([11]; HepG2, 72 h): 84.6%
EC50 ([12]; MIA PaCa-2, 72 h): 15 to 100 µM
Emax ([12]; MIA PaCa-2, 72 h): 98.2%
EC50 ([13]; K562, 72 h): 15 to 100 µM
Emax ([13]; K562, 72 h): 101%
EC50 ([14]; HEL 92.1.7, 72 h): 5 to 15 µM
Emax ([14]; HEL 92.1.7, 72 h): 100%
EC50 ([15]; MCF7, 72 h): 15 to 100 µM
Emax ([15]; MCF7, 72 h): 101%
EC50 ([16]; HL-60, 72 h): 5 to 15 µM
Emax ([16]; HL-60, 72 h): 102%
EC50 ([17]; KG-1, 72 h): 15 to 100 µM
Emax ([17]; KG-1, 72 h): 99%
EC50 ([18]; HT-29, 72 h): 15 to 100 µM
Emax ([18]; HT-29, 72 h): 88.1%
EC50 ([19]; 72 h): 5 to 15 µM
Emax ([19]; 72 h): 100%

Nc1nc(Cl)nc2c1ncn2[C@@H]1O[C@H](CO)C[C@H]1O [2-Cl-cordycepin, 3′-deoxy-2-chloroadenosine, reference compound]
Emax ([1]; 72 hr, Table VII): 84.1%
EC50 ([1]; 72 hr): 15 to 100 µM
Emax ([2]; MV4-11, 72 hr, Table VII): 100%
EC50 ([2]; MV4-11, 72 hr): 15 to 100 µM
Emax ([3]; NCI-H929, 72 hr, Table VII): 93.6%
EC50 ([3]; NCI-H929, 72 hr): 5 to 15 µM
Emax ([4]; SW-620, SW620, 72 hr, Table VII): 36.3%
EC50 ([4]; SW-620, SW620, 72 hr): > 100 µM
EC50 ([5]; BxPC-3-Luc, 72 hr): > 100 µM
Emax ([6]; THP-1, 72 hr, Table VII): 24.1%
EC50 ([6]; THP-1, 72 hr): > 100 µM
Emax ([7]; MOLT-4, 72 hr, Table VII): 80.4%
EC50 ([7]; MOLT-4, 72 hr): > 100 µM
Emax ([8]; RPMI-8226, 72 hr, Table VII): 29%
EC50 ([8]; RPMI-8226, 72 hr): > 100 µM
Emax ([9]; Z-138, 72 hr, Table VII): 99.5%
EC50 ([9]; Z-138, 72 hr): 15 to 100 µM
Emax ([10]; Hs 445, HS445, 72 hr, Table VII): -1.9%
EC50 ([10]; Hs 445, HS445, 72 hr): > 100 µM
Emax ([11]; HepG2, 72 hr, Table VII): 31.1%
EC50 ([11]; HepG2, 72 hr): > 100 µM
Emax ([12]; MIA PaCa-2, Mia-Pa-Ca-2, 72 hr, Table VII): 17.7%
EC50 ([12]; MIA PaCa-2, Mia-Pa-Ca-2, 72 hr): > 100 µM
Emax ([13]; K562, 72 hr, Table VII): 37.6%
EC50 ([13]; K562, 72 hr): > 100 µM
Emax ([14]; HEL.92.1.7, 72 hr, Table VII): 94.3%
EC50 ([14]; HEL.92.1.7, 72 hr): 5 to 15 µM
Emax ([15]; MCF7, MCF-7, 72 hr, Table VII): -0.9%
EC50 ([15]; MCF7, MCF-7, 72 hr): > 100 µM
Emax ([16]; HL-60, 72 hr, Table VII): 84.4%
EC50 ([16]; HL-60, 72 hr): 15 to 100 µM
Emax ([17]; KG-1, 72 hr, Table VII): 4.3%
EC50 ([17]; KG-1, 72 hr): > 100 µM
Emax ([18]; HT-29, HT29, 72 hr, Table VII): 4.4%
EC50 ([18]; HT-29, HT29, 72 hr): > 100 µM
Emax ([19]; 72 hr, Table VII): 98.1%
EC50 ([19]; 72 hr): 15 to 100 µM

Reference: patent publication US10570168B2, “2′ and/or 5′ amino-acid ester phosphoramidate 3′-deoxy adenosine derivatives as anti- cancer compounds” (NuCana plc, priority 2014, dated 2020)
